As a reminder, the pIC50 is the IC50 on a negative log10 scale, so that one unit is a factor of ten.

For assay [1], the target named is T1, BACE1 (Homo sapiens (Human), UniProt P56817). The assay can be described thus: In vitro enzymatic BACE1 FRET assay. The class given is biochemical. As to conditions: pH 4.5, read-out: BACE1 Enzyme IC50.
Target sequence in this assay (P56817 46-501): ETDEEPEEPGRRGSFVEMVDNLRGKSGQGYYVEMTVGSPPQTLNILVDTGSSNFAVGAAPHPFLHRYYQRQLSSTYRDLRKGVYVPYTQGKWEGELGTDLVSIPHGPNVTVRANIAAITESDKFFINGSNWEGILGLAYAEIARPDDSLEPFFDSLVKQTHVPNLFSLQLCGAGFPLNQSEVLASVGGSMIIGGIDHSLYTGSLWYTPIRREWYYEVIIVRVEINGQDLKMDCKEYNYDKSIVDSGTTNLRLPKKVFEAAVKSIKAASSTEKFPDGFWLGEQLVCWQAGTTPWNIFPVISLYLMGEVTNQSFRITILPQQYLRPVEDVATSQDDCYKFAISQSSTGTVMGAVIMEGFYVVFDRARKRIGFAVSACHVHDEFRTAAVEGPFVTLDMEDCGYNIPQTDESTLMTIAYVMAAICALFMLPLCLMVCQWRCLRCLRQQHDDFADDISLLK
The target of assay [2] is T1, BACE1. Nature of the assay: In vitro BACE1 cell-based assay (Aβ40 in conditioned medium of cells stably expressing APP, HTRF). Here is the method:
In Vitro BACE1 Cell-Based Assay
The cell-based assay measures inhibition or reduction of Aβ40 in conditioned medium of test compound treated cells expressing amyloid precursor protein. Cells stably expressing Amyloid Precursor Protein (APP) were plated at a density of 45K cells/well in 384 well plates (Corning/BioCoat 354663). The test compounds were then added to cells in 22-point dose response concentrations with the starting concentration being 62.5 μM. The compounds were diluted from stock solutions in DMSO and the final DMSO concentration of the test compounds on cells was 0.625%. The cells were cultivated overnight at 37° C. and 5% CO2 in DMEM supplemented with 10% FBS. After 24 h of incubation with the test compounds, the conditioned media was collected and the Aβ40 levels were determined using HTRF (Homogeneous Time Resolved Fluorescence). The IC50 of the compound was calculated from the percent of control or percent inhibition of Aβ40 as a function of the concentration of the test compound.
The HTRF to detect Aβ40 was performed in 384 well plates (Costar 3658). The antibody pair that were used to detect Aβ40 from cell supernatants were ConfAb40 antibody (Amgen in-house) and biotinylated 6E10 (BIOLEGEND). As an alternative to ConfAb40, a commercially available antibody, Anti-beta Amyloid 1-40 antibody [BDI350] from Abcam, Cambridge, Mass. 02139-1517 (Product code: ab20068), may be used in this assay. The concentrations were 0.35 μg/mL of ConfAb40 antibody and 1.33 μg/mL of 6E10-biotinylated antibody, as well as 4.5 μg/mL of Streptavidin Allophycocyanin Conjugate (ThermoFisher Scientific) in HTRF Buffer ([…], 1% BSA, 0.5% Tween 20).
The conditioned media was incubated with above antibodies and Streptavidin Allophycocyanin Conjugate for 30-60 minutes at 23° C. The final readout was performed on Envision from PerkinElmer.
Target sequence in this assay (P56817 46-501, species assumed): as the sequence (P56817 46-501) above
A general note: TR-FRET usually uses a lanthanide donor and a delayed reading to cut background.

The target of a further assay is human recombinant BACE2 (Homo sapiens (Human), UniProt Q9Y5Z0). The assay can be described thus: In vitro enzymatic BACE2 FRET assay. As to conditions: pH 4.5, read-out: BACE2 Enzyme IC50. It counts as biochemical.
human recombinant BACE2, sequence (Q9Y5Z0 63-518): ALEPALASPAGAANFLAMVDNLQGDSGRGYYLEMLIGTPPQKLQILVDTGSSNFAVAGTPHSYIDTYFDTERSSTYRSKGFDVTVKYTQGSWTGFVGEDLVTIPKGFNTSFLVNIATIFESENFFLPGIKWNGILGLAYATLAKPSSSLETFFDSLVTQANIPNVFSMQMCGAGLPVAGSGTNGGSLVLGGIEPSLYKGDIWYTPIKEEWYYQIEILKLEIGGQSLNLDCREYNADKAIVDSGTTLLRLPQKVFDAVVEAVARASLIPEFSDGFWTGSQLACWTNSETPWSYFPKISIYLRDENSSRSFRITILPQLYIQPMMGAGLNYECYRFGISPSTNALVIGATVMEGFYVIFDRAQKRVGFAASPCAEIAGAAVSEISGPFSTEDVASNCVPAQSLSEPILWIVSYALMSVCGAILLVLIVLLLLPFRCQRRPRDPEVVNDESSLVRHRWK
The next assay deals with Recombinant CatD (Homo sapiens (Human), UniProt P07339). The assay can be described thus: In vitro enzymatic Cathepsin D (CatD) FRET assay. It counts as biochemical. As to conditions: pH 3.5, read-out: Cat D Enzyme IC50.
Recombinant CatD, sequence (P07339 65-412): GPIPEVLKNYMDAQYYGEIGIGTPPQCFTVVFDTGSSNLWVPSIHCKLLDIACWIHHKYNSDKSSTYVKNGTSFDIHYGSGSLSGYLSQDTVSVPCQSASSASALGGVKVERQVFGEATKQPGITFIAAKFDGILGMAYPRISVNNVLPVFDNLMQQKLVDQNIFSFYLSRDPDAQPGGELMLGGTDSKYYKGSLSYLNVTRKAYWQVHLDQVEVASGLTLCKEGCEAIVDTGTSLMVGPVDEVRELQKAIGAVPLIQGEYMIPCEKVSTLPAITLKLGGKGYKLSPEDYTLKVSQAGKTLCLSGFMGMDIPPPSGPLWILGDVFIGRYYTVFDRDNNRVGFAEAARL
Where [3] appears, read: Aβ40, 24 h incubation, read-out: BACE1 Cell IC50.

The structures appear in SMILES notation. pIC50: −log10 of the molar value.

Consider `N#Cc1ccc(C#Cc2ccc(F)c([C@@]3(CF)N=C(N)S[C@@]4(/C=C/C(=O)N5CCOCC5)C[C@H]43)c2)nc1` [Example 111, 6-((3-((1R,5S,6S)-3-amino-5-(fluoromethyl)-1-((E)-3-morpholino-3-oxoprop-1-en-1-yl)-2-thia-4-azabicyclo[4.1.0]hept-3-en-5-yl)-4-fluorophenyl)ethynyl)nicotinonitrile], for which the pIC50 on BACE1 [1] was 7.72; at BACE1 [2] (setting [3]), 7.14; at human recombinant BACE2, 6.39; at Recombinant CatD it was 3.52.

For the compound `N#Cc1cnc(C#Cc2ccc(F)c([C@@]3(CF)N=C(N)S[C@@]4(/C=C/C(=O)N5CCOCC5)C[C@H]43)c2)nc1` [Example 121, 2-((3-((1R,5S,6S)-3-amino-5-(fluoromethyl)-1-((E)-3-morpholino-3-oxoprop-1-en-1-yl)-2-thia-4-azabicyclo[4.1.0]hept-3-en-5-yl)-4-fluorophenyl)ethynyl)pyrimidine-5-carbonitrile], the pIC50 on BACE1 [1] is 8.05; on BACE1 [2] (setting [3]), 5.72; at human recombinant BACE2, 7.33; at Recombinant CatD, 3.84.

As to `N#Cc1ccc(C#Cc2ccc(F)c([C@@]3(CF)N=C(N)S[C@@]4(CO)C[C@H]43)c2)nc1` [Example 100, 6-((3-((1S,5S,6S)-3-amino-5-(fluoromethyl)-1-(hydroxymethyl)-2-thia-4-azabicyclo[4.1.0]hept-3-en-5-yl)-4-fluorophenyl)ethynyl)nicotinonitrile], the negative logarithm of the IC50 (pIC50) on BACE1 [1] was 7.10; on BACE1 [2] (setting [3]), 6.89; at human recombinant BACE2, 5.34; at Recombinant CatD, 2.31.

With `Cc1cc(C#N)cnc1C#Cc1cnc(F)c([C@@]2(C)N=C(N)S[C@@]3(C(=O)N4CCCC4)CC32)c1` (stereo partly drawn) [Example 137, 6-((5-((1S,5S)-3-amino-5-methyl-1-(pyrrolidine-1-carbonyl)-2-thia-4-azabicyclo[4.1.0]hept-3-en-5-yl)-6-fluoropyridin-3-yl)ethynyl)-5-methylnicotinonitrile], the negative-log IC50 (pIC50) on BACE1 [1] is 7.96; on BACE1 [2], 7.46; on human recombinant BACE2 it was 6.32; on Recombinant CatD, < 3.40.

For `Cc1cc(C#N)cnc1C#Cc1ccc(F)c([C@@]2(C)N=C(N)S[C@@]3(C(=O)N(C)C)C[C@H]32)c1` [Example 123, (1S,5S,6S)-3-amino-5-(5-((5-cyano-3-methyl-2-pyridinyl)ethynyl)-2-fluorophenyl)-N,N,5-trimethyl-2-thia-4-azabicyclo[4.1.0]hept-3-ene-1-carboxamide], the negative-log IC50 (pIC50) at BACE1 [1] is 8.52; at BACE1 [2] (setting [3]) it was 8.52; at human recombinant BACE2, 7.00; on Recombinant CatD, 3.63.

With `N#Cc1cnc(C#Cc2ccc(F)c([C@@]3(CF)N=C(N)S[C@@]4(/C=C/C(=O)N5CCOCC5)C[C@H]43)c2)c(F)c1` [Example 124, 6-((3-((1R,5S,6S)-3-amino-5-(fluoromethyl)-1-((E)-3-morpholino-3-oxoprop-1-en-1-yl)-2-thia-4-azabicyclo[4.1.0]hept-3-en-5-yl)-4-fluorophenyl)ethynyl)-5-fluoronicotinonitrile], the pIC50 is 7.31 at BACE1 [1], 6.82 on BACE1 [2] (setting [3]), 7.43 at human recombinant BACE2 and 3.47 on Recombinant CatD.

For the compound `N#Cc1ccc(C#Cc2ccc(F)c([C@@]3(CF)N=C(N)S[C@@]4(CCC(=O)N5CCOCC5)C[C@H]43)c2)nc1` [Example 119, 6-((3-((1S,5S,6S)-3-amino-5-(fluoromethyl)-1-(3-morpholino-3-oxopropyl)-2-thia-4-azabicyclo[4.1.0]hept-3-en-5-yl)-4-fluorophenyl)ethynyl)nicotinonitrile], the pIC50 at BACE1 [1] is 7.31; at BACE1 [2] (setting [3]) it was 7.22; at human recombinant BACE2, 6.90; at Recombinant CatD, 3.73.
